Measured values reported in paper PMC9448386, “Discovery of novel conjugates of quinoline and thiazolidinone urea as potential anti-colorectal cancer agent” (Journal of Enzyme Inhibition and Medicinal Chemistry, 2022).

How the values were obtained:
FLT3 = biological target: T1, FLT3 (Homo sapiens, UniProt P36888); assay: Mobility shift assay, FLT3; type: biochemical; conditions: mean of two independent experiments, SD shown
T1 sequence (P36888 27-993): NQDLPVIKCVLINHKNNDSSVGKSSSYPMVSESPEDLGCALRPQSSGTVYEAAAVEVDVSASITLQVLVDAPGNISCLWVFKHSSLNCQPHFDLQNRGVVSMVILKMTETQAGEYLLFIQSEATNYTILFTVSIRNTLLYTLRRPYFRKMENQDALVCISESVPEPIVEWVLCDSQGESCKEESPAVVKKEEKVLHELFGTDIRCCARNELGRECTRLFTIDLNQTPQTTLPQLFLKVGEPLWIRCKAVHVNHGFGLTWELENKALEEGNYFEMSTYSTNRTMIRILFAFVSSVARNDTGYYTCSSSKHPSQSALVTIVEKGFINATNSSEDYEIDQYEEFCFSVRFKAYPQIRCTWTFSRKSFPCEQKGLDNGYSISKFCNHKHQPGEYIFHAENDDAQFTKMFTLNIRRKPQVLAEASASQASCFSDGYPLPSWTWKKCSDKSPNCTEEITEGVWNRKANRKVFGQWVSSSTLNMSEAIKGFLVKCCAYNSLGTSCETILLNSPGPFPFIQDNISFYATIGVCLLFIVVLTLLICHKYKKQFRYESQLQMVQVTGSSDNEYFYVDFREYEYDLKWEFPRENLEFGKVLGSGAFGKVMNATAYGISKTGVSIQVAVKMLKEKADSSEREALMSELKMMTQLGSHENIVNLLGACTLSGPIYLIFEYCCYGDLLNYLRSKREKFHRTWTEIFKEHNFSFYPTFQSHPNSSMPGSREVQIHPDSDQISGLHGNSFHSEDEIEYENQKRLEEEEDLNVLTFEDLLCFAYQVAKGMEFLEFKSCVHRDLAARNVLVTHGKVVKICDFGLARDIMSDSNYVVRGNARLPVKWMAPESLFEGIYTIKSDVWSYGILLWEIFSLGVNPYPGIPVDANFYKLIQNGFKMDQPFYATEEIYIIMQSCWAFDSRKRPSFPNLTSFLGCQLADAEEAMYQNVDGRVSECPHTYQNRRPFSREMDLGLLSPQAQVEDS
Description: (§1) Kinase inhibitory activity against HGFR, MST1R, ABL, PDGFRβ, AXL, FLT3, RET, c-Src, and VEGFR-2 was evaluated by the mobility shift assay. Detailed operation could be found in our previous research.

c-Src = c-Src (Homo sapiens, UniProt P12931); assay: Mobility shift assay, c-Src; type: biochemical; conditions: mean of two independent experiments, SD shown
Description: as §1

HCT-116 cells = assay: MTT assay, cytotoxic activity against HCT-116; type: cell-based; conditions: Homo sapiens, average of three separate determinations, SD shown
Text: (§2) Taking lead compound BC2021-104511-15i, Fruquintinib and Regorafenib as positive controls, the cytotoxic activity against HT-29, HCT-116, COLO-205 and FHC cell lines by MTT assay. Detailed operation could be found in our previous study.

HGFR = HGFR (Homo sapiens, UniProt P08581); assay: Mobility shift assay, HGFR kinase inhibition; type: biochemical; conditions: mean of two independent experiments
HGFR, sequence (P08581 25-1390): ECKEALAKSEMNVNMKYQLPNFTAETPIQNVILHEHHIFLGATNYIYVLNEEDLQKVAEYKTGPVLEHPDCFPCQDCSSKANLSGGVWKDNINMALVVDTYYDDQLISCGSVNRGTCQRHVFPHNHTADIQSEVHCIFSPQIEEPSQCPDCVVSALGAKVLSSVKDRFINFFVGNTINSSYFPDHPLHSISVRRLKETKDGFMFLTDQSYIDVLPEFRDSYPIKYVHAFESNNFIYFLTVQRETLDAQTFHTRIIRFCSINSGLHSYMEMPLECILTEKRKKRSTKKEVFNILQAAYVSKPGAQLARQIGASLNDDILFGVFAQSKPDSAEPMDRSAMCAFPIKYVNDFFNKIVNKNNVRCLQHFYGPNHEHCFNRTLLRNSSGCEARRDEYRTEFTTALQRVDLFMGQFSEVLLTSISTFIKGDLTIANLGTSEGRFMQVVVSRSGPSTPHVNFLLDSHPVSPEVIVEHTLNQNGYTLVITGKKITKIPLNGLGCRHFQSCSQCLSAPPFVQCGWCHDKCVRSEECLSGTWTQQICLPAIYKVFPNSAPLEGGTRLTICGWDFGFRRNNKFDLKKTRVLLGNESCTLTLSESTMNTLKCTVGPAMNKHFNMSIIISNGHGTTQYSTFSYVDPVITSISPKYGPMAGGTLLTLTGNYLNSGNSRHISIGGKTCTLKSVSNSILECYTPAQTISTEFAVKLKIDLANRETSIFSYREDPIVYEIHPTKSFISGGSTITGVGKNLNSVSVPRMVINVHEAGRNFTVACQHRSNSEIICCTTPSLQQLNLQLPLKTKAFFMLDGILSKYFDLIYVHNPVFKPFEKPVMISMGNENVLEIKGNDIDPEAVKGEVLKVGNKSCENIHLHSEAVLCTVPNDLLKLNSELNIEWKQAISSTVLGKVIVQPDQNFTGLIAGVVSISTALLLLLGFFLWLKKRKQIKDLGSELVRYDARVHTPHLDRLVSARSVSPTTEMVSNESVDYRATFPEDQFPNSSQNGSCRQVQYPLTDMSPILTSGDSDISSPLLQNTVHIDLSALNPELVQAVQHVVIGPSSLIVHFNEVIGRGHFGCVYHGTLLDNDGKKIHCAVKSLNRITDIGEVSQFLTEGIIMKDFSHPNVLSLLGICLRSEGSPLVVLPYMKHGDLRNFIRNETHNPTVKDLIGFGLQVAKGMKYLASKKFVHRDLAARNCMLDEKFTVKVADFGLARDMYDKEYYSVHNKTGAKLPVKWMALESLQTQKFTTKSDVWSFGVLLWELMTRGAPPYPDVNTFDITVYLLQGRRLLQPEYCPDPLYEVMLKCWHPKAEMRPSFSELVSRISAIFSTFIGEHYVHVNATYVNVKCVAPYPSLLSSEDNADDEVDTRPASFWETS
Description: as §1

COLO 205 cells = assay: Cell cycle arrest assay by flow cytometry; type: cell-based; conditions: COLO 205, 0.33 μM and 0.11 μM, 24 h
Description: The antiproliferative activity of compound 10a was evaluated by flowcytometry analysis of COLO 205 cells. COLO 205 cells were treated with different concentrations (1.0 μM, 0.33 μM and 0.11 μM) of compound 10a for 24 h. […] At the concentration of 1.0 μM, cell cycle arrest could not be determined due to the massive dead cells (data not shown).
COLO 205 cells (2.5 × 10^5) were seeded in two 12-well plates and treated with DMSO and compound 10a (0.11 μM, 0.33 μM and 1.0 μM) for 24 h (37 °C, 5% CO2). Cells were collected, centrifuged at 1000 rpm for 5 min, washed with cold PBS for twice, and then fixed with 500 μL 75% cold ethanol at 4 °C. The cells were washed with cold PBS and stained with propidium iodide for 30 min in the dark. Cell-cycle analyses were conducted with Cytoflex S (Beckman Coulter).

AXL = biological target: T2, AXL (Homo sapiens, UniProt P30530); assay: Mobility shift assay, AXL; type: biochemical; conditions: mean of two independent experiments, SD shown
T2 sequence (P30530 26-894): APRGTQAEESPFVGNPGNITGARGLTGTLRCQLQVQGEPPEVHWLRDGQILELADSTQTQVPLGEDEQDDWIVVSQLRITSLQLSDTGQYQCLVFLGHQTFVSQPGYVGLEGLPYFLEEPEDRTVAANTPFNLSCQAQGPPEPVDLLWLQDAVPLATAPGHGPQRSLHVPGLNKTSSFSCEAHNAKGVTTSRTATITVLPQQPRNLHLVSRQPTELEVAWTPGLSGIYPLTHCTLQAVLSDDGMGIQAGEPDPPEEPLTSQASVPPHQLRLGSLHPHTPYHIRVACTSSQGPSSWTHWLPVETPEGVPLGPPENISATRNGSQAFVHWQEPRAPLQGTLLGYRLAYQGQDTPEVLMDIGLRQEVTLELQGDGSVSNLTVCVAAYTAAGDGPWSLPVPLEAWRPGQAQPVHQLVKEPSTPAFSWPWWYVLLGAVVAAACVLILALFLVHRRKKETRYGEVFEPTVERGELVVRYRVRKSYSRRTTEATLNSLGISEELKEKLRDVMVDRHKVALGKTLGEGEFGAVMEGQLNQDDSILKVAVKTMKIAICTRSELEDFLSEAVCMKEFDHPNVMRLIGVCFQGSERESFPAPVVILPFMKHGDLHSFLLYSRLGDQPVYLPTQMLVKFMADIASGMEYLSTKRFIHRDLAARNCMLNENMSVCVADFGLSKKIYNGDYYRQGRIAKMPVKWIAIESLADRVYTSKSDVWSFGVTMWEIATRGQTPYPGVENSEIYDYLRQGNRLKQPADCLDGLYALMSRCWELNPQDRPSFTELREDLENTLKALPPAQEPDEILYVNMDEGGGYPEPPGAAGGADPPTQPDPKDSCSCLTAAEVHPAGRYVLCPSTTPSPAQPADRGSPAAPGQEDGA
Description: as §1

[1] = MTT assay, cytotoxicity against FHC cells; type: cell-based; conditions: FHC cells (normal colorectal mucosa epithelial cells); human normal colorectal mucosa epithelial cells; average of three separate determinations
Description: In order to investigate the cell selectivity index, the cytotoxicity of potent compounds against human normal colorectal mucosa epithelial cell FHC cells was determined.
as §2

ABL = ABL (Homo sapiens, UniProt P00519); assay: Mobility shift assay, ABL; type: biochemical; conditions: mean of two independent experiments, SD shown
ABL, sequence (P00519 whole entry): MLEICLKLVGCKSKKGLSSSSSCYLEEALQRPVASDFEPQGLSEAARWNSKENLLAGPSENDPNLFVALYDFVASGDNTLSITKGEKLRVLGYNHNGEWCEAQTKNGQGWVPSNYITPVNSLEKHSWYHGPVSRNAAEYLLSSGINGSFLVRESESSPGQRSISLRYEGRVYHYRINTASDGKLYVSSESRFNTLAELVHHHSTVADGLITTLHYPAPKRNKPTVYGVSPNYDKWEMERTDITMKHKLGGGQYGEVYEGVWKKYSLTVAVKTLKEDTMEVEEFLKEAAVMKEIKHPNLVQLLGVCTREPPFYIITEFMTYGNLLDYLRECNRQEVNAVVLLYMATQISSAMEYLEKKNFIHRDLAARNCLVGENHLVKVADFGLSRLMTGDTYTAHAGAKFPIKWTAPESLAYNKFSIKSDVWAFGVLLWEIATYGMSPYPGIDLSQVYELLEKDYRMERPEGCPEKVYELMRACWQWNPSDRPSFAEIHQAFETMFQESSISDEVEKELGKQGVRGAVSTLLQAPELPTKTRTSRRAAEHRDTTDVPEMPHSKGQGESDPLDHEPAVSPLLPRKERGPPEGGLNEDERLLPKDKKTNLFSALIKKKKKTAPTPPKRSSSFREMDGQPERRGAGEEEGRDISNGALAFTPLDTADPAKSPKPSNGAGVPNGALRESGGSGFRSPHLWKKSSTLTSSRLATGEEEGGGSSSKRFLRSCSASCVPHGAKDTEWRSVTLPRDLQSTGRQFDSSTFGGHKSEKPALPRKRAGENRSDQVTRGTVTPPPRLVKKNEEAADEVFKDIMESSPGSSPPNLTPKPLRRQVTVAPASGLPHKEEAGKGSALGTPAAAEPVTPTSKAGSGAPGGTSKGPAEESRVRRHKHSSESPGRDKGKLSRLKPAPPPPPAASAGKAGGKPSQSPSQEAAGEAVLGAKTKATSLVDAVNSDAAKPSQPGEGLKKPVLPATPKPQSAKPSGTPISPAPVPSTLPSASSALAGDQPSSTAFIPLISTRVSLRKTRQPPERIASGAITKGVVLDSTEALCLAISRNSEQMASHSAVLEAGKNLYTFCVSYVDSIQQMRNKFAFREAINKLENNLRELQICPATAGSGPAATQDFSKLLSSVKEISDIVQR
Description: as §1

HT-29 cells = assay: MTT assay, cytotoxic activity against HT-29; type: cell-based, human; conditions: Homo sapiens, HT-29, average of three separate determinations, SD shown
Text: as §2

PDGFRβ = PDGFRβ (Homo sapiens, UniProt P09619); assay: Mobility shift assay, PDGFRβ; type: biochemical; conditions: mean of two independent experiments, SD shown
PDGFRβ, sequence (P09619 33-1106): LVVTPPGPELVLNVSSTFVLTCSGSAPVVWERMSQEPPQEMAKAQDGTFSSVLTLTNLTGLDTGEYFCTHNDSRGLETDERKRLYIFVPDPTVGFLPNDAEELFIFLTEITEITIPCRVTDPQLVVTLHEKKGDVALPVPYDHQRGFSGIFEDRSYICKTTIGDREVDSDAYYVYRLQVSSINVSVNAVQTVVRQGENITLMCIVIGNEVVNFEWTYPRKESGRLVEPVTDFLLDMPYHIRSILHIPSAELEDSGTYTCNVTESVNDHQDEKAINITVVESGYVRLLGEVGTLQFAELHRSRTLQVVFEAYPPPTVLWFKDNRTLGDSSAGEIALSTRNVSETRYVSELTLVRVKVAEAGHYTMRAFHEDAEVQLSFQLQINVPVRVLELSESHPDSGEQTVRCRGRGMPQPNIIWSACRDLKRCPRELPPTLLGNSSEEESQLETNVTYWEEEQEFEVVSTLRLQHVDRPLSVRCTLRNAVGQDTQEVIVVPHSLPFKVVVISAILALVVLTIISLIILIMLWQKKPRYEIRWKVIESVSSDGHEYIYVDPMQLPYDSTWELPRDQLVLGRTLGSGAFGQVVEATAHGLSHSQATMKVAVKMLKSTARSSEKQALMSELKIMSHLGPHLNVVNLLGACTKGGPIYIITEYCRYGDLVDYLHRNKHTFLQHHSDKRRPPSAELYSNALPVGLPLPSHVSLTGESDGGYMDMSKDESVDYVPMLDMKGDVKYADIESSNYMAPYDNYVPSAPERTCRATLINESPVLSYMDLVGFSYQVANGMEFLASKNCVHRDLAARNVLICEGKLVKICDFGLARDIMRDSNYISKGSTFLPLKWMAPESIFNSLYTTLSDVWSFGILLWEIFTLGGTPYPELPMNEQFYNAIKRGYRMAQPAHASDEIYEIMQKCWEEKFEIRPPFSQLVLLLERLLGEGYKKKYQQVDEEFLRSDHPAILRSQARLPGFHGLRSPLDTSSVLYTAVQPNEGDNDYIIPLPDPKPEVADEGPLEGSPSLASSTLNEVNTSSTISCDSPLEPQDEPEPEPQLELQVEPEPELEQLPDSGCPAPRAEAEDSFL
Description: as §1

MST1R = MST1R (Homo sapiens, UniProt Q04912); assay: Mobility shift assay, MST1R kinase inhibition; type: biochemical; conditions: mean of two independent experiments
MST1R, sequence (Q04912 25-1400): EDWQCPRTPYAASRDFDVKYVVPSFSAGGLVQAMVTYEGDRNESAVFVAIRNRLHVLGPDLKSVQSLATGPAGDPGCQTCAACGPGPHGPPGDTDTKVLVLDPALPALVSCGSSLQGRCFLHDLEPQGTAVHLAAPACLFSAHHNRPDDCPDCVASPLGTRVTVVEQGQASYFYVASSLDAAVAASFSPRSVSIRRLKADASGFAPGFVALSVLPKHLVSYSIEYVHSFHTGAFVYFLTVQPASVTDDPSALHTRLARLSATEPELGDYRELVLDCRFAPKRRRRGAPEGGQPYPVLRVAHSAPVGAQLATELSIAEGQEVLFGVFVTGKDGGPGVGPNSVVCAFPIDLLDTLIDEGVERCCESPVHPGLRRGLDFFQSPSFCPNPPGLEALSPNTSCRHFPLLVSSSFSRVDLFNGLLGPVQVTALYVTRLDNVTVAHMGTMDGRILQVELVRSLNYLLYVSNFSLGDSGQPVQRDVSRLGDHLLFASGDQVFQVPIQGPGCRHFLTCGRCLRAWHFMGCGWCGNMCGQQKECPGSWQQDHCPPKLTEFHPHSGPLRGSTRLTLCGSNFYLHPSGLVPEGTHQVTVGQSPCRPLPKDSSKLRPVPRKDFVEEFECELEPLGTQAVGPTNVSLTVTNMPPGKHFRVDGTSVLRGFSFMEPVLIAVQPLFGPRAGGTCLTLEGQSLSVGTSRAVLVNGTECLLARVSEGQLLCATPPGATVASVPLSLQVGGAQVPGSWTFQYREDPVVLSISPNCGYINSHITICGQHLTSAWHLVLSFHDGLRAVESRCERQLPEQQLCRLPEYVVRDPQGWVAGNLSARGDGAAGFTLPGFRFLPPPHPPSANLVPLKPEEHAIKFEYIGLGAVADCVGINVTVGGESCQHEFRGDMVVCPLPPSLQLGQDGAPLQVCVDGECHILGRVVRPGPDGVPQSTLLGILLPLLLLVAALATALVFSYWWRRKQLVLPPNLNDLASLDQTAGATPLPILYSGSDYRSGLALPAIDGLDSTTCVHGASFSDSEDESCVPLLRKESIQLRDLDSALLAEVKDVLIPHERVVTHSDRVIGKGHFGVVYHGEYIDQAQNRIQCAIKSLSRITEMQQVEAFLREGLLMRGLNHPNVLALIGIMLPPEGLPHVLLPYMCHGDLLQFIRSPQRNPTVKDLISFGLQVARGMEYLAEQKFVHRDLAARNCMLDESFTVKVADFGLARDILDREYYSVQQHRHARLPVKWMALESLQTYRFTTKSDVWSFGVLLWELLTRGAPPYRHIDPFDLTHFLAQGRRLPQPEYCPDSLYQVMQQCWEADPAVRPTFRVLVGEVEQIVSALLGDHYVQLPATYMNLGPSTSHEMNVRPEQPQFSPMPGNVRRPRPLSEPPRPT
Description: as §1

COc1cc2c(Oc3ccc(NC(=O)NN4C(=O)CSC4c4c(F)cccc4F)cc3F)ccnc2cc1OC1CCN(CC(N)=O)CC1 (centres unmarked) [Compound 10a, 2–(4-((4–(4-(3–(2-(2,6-Difluorophenyl)-4-oxothiazolidin-3-yl)ureido)-2-fluorophenoxy)-6-methoxyquinolin-7-yl)oxy)piperidin-1-yl)acetamide]
IC50 (FLT3): 6.93 ± 0.73 µM | IC50 (c-Src): 0.42 ± 0.035 µM | IC50 (HCT-116 cells): 0.87 ± 0.11 µM | IC50 (HGFR): 0.11 µM | cell cycle arrest (COLO 205 cells): could not arrest the cell-cycle progression | IC50 (AXL): 0.95 ± 0.086 µM | IC50 [1]: > 10 µM | IC50 (ABL): 1.68 ± 0.13 µM | IC50 (HT-29 cells): 1.3 ± 0.11 µM | IC50 (PDGFRβ): 1.13 ± 0.12 µM | IC50 (MST1R): 0.045 µM
